Results reported in patent US10065963B2 (Incyte Corporation, priority 2015, dated 2018).
Where a name gives a salt, the structure may show the parent alone. Read-outs that look alike come from different tables or passages of the source.

How the values were obtained:
[1] = molecular target: PI3Kγ (p110γ) Recombinant Human Protein (Homo sapiens (Human), UniProt P48736); test: PI3K-γ scintillation proximity assay; assay type: biochemical; conditions: 2 μM ATP, 20 μM PIP2
[2] = molecular target: PI3Kδ (p110δ/p85α) Recombinant Human Protein (Homo sapiens (Human), UniProt O00329); test: PI3Kδ scintillation proximity assay; assay type: biochemical; conditions: 2 μM ATP, 20 μM PIP2
Chain of PI3Kδ (p110δ/p85α) Recombinant Human Protein (O00329 whole entry): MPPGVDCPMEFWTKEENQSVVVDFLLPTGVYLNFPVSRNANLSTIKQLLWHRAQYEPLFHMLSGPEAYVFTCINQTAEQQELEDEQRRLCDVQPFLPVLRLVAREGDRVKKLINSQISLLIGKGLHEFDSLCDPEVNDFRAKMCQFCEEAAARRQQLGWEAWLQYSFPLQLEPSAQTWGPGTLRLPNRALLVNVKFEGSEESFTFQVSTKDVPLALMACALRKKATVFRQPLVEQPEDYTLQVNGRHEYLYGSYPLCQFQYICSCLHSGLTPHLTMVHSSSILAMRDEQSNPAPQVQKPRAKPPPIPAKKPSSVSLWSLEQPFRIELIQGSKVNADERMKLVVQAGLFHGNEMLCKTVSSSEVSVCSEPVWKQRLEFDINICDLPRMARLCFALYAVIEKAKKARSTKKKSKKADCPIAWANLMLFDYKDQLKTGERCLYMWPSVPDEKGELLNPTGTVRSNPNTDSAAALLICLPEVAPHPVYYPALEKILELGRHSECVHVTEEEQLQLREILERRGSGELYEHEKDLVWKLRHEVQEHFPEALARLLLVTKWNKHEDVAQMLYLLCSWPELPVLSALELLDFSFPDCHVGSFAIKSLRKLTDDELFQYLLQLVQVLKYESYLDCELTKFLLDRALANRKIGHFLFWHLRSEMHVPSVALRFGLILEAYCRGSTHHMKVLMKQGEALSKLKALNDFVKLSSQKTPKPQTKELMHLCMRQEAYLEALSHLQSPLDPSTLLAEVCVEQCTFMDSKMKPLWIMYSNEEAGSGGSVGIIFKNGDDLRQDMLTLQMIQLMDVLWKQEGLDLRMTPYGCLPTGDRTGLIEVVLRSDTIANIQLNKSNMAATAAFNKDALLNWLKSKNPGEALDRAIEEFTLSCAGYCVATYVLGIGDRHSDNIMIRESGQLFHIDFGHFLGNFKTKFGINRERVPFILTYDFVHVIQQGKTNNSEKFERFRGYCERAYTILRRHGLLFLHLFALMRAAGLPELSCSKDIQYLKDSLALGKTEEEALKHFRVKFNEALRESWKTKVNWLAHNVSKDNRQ
Chain of PI3Kδ (p110δ/p85α) Recombinant Human Protein (P27986 whole entry partner): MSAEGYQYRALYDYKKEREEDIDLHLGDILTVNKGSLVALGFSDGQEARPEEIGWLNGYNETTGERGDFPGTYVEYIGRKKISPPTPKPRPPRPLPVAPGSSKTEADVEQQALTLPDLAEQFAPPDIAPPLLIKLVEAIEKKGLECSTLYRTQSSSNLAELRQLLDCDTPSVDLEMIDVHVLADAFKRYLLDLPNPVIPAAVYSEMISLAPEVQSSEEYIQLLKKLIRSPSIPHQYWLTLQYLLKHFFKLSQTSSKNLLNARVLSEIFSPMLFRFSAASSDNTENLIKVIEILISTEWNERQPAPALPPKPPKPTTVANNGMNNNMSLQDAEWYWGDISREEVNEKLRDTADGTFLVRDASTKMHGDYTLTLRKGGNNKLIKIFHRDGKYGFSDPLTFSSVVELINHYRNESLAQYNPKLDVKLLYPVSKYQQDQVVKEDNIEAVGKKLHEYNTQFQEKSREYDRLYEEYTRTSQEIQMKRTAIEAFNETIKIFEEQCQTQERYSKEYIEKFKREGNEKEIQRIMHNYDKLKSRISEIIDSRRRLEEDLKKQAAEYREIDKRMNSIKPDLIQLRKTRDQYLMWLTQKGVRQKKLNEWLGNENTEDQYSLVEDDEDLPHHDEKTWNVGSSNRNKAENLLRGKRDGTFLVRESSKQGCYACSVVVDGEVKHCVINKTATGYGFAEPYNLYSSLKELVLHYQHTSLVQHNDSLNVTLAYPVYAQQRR

[3] = tested on: Phosphorylated Ribosomal Protein S6 (RPS6) in THP-1 cells; test: THP-1 RPS6 ELISA assay; assay type: cell-based, human; conditions: 10 nM MCP-1, read-out: PI3Kγ_THP1_RPS6_ELISA IC50
[4] = Homo sapiens, THP-1, THP-1 cells

Chain of PI3Kγ (p110γ) Recombinant Human Protein (P48736 whole entry): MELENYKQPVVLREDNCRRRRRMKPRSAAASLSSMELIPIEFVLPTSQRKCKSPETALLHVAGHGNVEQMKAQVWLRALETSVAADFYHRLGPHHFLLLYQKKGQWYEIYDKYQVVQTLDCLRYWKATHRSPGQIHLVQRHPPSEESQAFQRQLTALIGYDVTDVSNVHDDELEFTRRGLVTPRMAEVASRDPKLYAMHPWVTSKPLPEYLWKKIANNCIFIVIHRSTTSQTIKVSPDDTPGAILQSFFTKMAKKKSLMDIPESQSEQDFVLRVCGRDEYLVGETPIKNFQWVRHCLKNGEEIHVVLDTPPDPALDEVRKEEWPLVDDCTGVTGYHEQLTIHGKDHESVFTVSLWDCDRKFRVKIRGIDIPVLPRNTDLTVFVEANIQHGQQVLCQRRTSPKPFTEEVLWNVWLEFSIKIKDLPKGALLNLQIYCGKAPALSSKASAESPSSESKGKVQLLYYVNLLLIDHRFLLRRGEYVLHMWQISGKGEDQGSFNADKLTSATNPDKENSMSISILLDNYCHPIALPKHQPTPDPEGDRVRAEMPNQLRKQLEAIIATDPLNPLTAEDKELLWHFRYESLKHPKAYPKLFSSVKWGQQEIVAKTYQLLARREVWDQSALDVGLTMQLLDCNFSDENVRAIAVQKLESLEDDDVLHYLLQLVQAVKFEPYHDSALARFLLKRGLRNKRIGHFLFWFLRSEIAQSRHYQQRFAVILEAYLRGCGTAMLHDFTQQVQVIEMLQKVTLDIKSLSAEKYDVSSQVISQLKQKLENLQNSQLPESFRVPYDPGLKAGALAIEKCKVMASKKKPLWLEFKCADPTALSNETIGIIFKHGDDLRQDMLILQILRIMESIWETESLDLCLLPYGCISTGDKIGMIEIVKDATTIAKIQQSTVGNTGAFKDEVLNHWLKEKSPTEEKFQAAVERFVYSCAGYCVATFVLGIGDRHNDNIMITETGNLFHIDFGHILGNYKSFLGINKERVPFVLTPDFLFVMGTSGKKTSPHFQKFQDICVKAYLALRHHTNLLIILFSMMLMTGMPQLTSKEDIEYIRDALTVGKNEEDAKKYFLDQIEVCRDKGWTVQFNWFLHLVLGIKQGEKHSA

| IC50 [1] [nM] | IC50 [2] [nM] | IC50 [3, 4] [nM] | IC50 ([3]; THP-1 cells) [nM] | Structure (SMILES) |
| --- | --- | --- | --- | --- |
| < 100 | < 100 | < 500 | – | CC(NC(=O)c1c(N)nn2cccnc12)c1cc(Cl)c2c(Cl)cnn2c1N1CCS(=O)(=O)C(C)(C)C1 (stereo not drawn) [Example 116, 2-Amino-N-{1-[3,4-dichloro-7-(2,2-dimethyl-1,1-dioxidothiomorpholin-4-yl)pyrazolo[1,5-a]pyridin-6-yl]ethyl}pyrazolo[1,5-a]pyrimidine-3-carboxamide trifluoroacetate] |
| < 100 | < 500 | – | > 1000 | COc1cncc(-c2c(C(C)NC(=O)c3c(N)nn4cccnc34)cc(Cl)c3cncn23)c1 (stereo not drawn) [Example 134, 2-Amino-N-{1-[8-chloro-5-(5-methoxypyridin-3-yl)imidazo[1,5-d]pyridin-6-yl]ethyl}pyrazolo[1,5-a]pyrimidine-3-carboxamide trifluoroacetate salt] |
| < 100 | < 500 | < 500 | – | COC1CCN(c2c(C(C)NC(=O)c3c(N)nn4cccnc34)cc(Cl)c3cncn23)C1 (stereo not drawn) [Example 144, 2-Amino-N-{1-[8-chloro-5-(3-methoxypyrrolidin-1-yl)imidazo[1,5-a]pyridin-6-yl]ethyl}pyrazolo[1,5-a]pyrimidine-3-carboxamide trifluoroacetate salt] |
| < 500 | < 500 | < 500 | – | CC(NC(=O)c1c(N)nn2cccnc12)c1cc(Cl)c2cncn2c1N1CCC(O)C1 (stereo not drawn) [Example 148, 2-Amino-N-{1-[8-chloro-5-(3-hydroxy-pyrrolidin-1-yl)imidazo[1,5-a]pyridin-6-yl]ethyl}pyrazolo [1,5-a]pyrimidine-3-carboxamide trifluoroacetate salt] |
| < 100 | < 100 | – | < 500 | CC(NC(=O)c1c(N)nn2cccnc12)c1cc(Cl)c2cncn2c1N1C[C@@H](O)C[C@H](O)C1 (stereo partly drawn) [Example 150, 2-Amino-N-(1-{8-chloro-5-[(3S,5S)-3,5-dihydroxypiperidin1-yl]imidazo[1,5-a]pyridin-6-yl}ethyl)pyrazol[1,5-a]pyrimidine-3-carboxamide trifluoroacetate salt] |
| < 100 | < 100 | – | < 500 | CC(NC(=O)c1c(N)nn2cccnc12)c1cc(Cl)c2cncn2c1N1CCCC(O)C1 (stereo not drawn) [Example 152, 2-Amino-N-(1-{8-chloro-5-[(3)-3-hydroxypiperidin-1-yl]imidazo[1,5-a]pyridin-6-yl}ethyl)pyrazolo[1,5-a]pyrimidine-3-carboxamide trifluoroacetate salt] |
| < 100 | < 100 | – | < 500 | CC(NC(=O)c1c(N)nn2cccnc12)c1cc(Cl)c2cncn2c1N1CCC(C#N)CC1 (stereo not drawn) [Example 153, 2-Amino-N-{1-[8-chloro-5-(4-cyanopiperidin-1-yl)imidazo[1.5-a]pyridin-6-yl]ethyl}pyrazolo[1,5-a]pyrimidine-3-carboxamide trifluoroacetate salt] |
| < 100 | < 100 | < 500 | – | CC(NC(=O)c1c(N)nn2cccnc12)c1cc(Cl)c2cncn2c1N1C[C@H](O)C[C@H](O)C1 (stereo partly drawn) [Example 155B, 2-Amino-N-(1-{8-chloro-5-[(3R,5S)-3,5-dihydroxypiperidin-1-yl]imidazo[1,5-a]pyridin-6-yl}ethyl)pyrazolo[1,5-a]pyrimidine-3-carboxamide trifluoroacetate salt] |
| < 100 | < 2000 | – | < 1000 | CC(NC(=O)c1c(N)nn2cccnc12)c1cc(Cl)c2cncn2c1N1C[C@@H](O)C[C@@H](F)C1 (stereo partly drawn) [Example 156, 2-Ammo-N-(1-{8-chloro-5-[(3R,5S)-3-fluoro-5-hydroxypiperidin-1-yl]imidazo[1,5-a]pyridin-6-yl}ethyl)pyrazolo[1,5-a]pyrimidine-3-carboxamide trifluoroacetate salt] |
| < 100 | < 500 | < 1000 | – | CC(NC(=O)c1c(N)nn2cccnc12)c1cc(Cl)c2cncn2c1N1C[C@H](O)C[C@H](C#N)C1 (stereo partly drawn) [Example 157, 2-Amino-N-(1-{8-chloro-5-[(3S,5R)-3-cyano-5-hydroxypiperidin-1-yl]imidazo[1,5-a]pyridin-6-yl}ethyl)pyrazolo[1,5-a]pyrimidine-3-carboxamide trifluoroacetate salt] |
| < 100 | < 2000 | < 500 | – | CC(NC(=O)c1c(N)nn2cccnc12)c1cc(Cl)c2c(C#N)ncn2c1N1CCS(=O)(=O)C(C)C1 (stereo not drawn) [Example 165, 2-Amino-N-(1-(8-chloro-1-cyano-5-(2-methyl-1,1-dioxidothiomorpholino)imidazo[1,5-a]pyridin-6-yl)ethyl)pyrazolo[1,5-a]pyrimidine-3-carboxamide trifluoroacetate salt] |
| < 100 | < 2000 | – | > 1000 | CC1(C)CN(c2c(CNC(=O)c3c(N)nn4cccnc34)cc(Cl)c3cncn23)CCS1(=O)=O [Example 168, 2-Amino-N-((8-chloro-5-(2,2-dimethyl-1,1-dioxido-thiomorpholino)imidazo[1,5-a]pyridin-6-yl)methyl) pyrazolo[1,5-a] pyrimidine-3-carboxamide trifluoroacetate salt] |
| < 100 | < 2000 | – | > 1000 | CC1(C)CN(c2c(CNC(=O)c3c(N)nn4cccnc34)cc(Cl)c3c(Cl)ncn23)CCS1(=O)=O [Example 170, 2-Amino-N-((1,8-dichloro-5-(2,2-dimethyl-1,1-dioxidothio-morpholino)imidazo [1,5-a]pyridin-6-yl)methyl) pyrazolo[1,5-a] pyrimidine-3-carboxamide trifluoroacetate salt] |
| < 100 | < 500 | > 1000 | – | Nc1nn2cccnc2c1C(=O)NCc1cc(Cl)c2cncn2c1N1CCCC1 [Example 171, 2-Amino-N-((8-chloro-5-(pyrrolidin-1-yl)imidazo[1,5-a]pyridin-6-yl)methyl)pyrazolo[1,5-a]pyrimidine-3-carboxamide trifluoroacetate salt] |
| < 100 | < 500 | < 1000 | – | Nc1nn2cccnc2c1C(=O)NCc1cc(Cl)c2c(Cl)ncn2c1N1CCCC1 [Example 172, 2-Amino-N-((1,8-dichloro-5-(pyrrolidin-1-yl)imidazo[1,5-a]pyridin-6-yl)methyl)pyrazolo[1,5-a]pyrimidine-3-carboxamidetrifluoroacetate salt] |
| < 100 | < 2000 | > 1000 | – | CC1CN(c2c(CNC(=O)c3c(N)nn4cccnc34)cc(Cl)c3c(C#N)ncn23)CCS1(=O)=O (stereo not drawn) [Example 174, 2-Amino-N-((8-chloro-1-cyano-5-(2-methyl-1,1-dioxidothiomorpholino)imidazo[1,5-a]pyridin-6-yl)methyl)pyrazolo[1,5-a]pyrimidine-3-carboxamide trifluoroacetate salt] |
| < 100 | < 2000 | < 500 | – | CCC(NC(=O)c1c(N)nn2cccnc12)c1cc(Cl)c2c(C#N)ncn2c1N1CCS(=O)(=O)C(C)C1 (stereo not drawn) [Example 175, 2-Amino-N-(1-(8-chloro-1-cyano-5-(2-methyl-1,1-dioxidothiomorpholino)imidazo[1,5-a]pyridin-6-yl)propyl)pyrazolo[1,5-a]pyrimidine-3-carboxamide trifluoroacetate salt] |
| < 100 | < 2000 | < 500 | – | CC1CN(c2c(C(NC(=O)c3c(N)nn4cccnc34)C3CC3)cc(Cl)c3c(C#N)ncn23)CCS1(=O)=O (stereo not drawn) [Example 176, 2-Amino-N-((8-chloro-1-cyano-5-(2-methyl-1,1-dioxidothio-morpholino)imidazo [1,5-a]pyridin-6-yl)(cyclopropyl)methyl)pyrazolo [1,5-a]pyrimidine-3-carboxamide trifluoroacetate salt] |
| < 100 | ≥ 2000 | < 1000 | – | CC1CN(c2c(C(NC(=O)c3c(N)nn4cccnc34)C(F)(F)F)cc(Cl)c3c(C#N)ncn23)CCS1(=O)=O (stereo not drawn) [Example 177, 2-Amino-N-(1-(8-chloro-1-cyano-5-(2-methyl-1,1-dioxidothiomorpholino)imidazo[1,5-a]pyridin-6-yl)-2,2,2-trifluoroethyl)pyrazolo[1,5-a]pyrimidine-3-carboxamide trifluoroacetate salt] |
| < 100 | < 100 | – | < 500 | CCC(NC(=O)c1c(N)nn2cccnc12)c1cc(Cl)c2cncn2c1N1CCS(=O)(=O)CC1 (stereo not drawn) [Example 179, 2-Amino-N-{1-[8-chloro-5-(1,1-dioxidothio-morpholin-4-yl)imidazo[1,5-a]pyridin-6-yl]propyl} pyrazolo[1,5-a] pyrimidine-3-carboxamide trifluoroacetate salt] |

| Structure (SMILES) | IC50 [1] [nM] | IC50 [2] [nM] | IC50 [3, 4] [nM] | IC50 ([3]; THP-1 cells) [nM] |
| --- | --- | --- | --- | --- |
| Nc1nn2cccnc2c1C(=O)NCc1cc(Cl)c2cncn2c1N1CCS(=O)(=O)CC1 [Example 166, 2-Amino-N-{[8-chloro-5-(1,1-dioxidothiomorpholin-4-yl)imidazo[1,5-a]pyridin-6-yl]methyl}pyrazolo[1,5-a]pyrimidine-3-carboxamide trifluoroacetate salt] | < 100 | < 2000 | < 1000 | – |
| N#Cc1ncn2c(N3CCCC3)c(CNC(=O)c3c(N)nn4cccnc34)cc(Cl)c12 [Example 173, 2-Amino-N-((8-chloro-1-cyano-5-(pyrrolidin-1-yl)imidazo[1,5-a]pyridin-6-yl)methyl)pyrazolo[1,5-a]pyrimidine-3-carboxamide trifluoroacetate salt] | < 500 | < 2000 | > 1000 | – |
